Measurements taken from PMC9007951, “Systematically evaluating DOTATATE and FDG as PET immuno-imaging tracers of cardiovascular inflammation” (Scientific Reports, 2022).
Read-outs that look alike come from different tables or passages of the source.

Assay: Timed organ biodistribution of [^64Cu]Cu-DOTATATE by ex vivo gamma counting
Format: in vivo, mice
Settings: mouse, intravenous, 1.85 MBq, total radioactivity, median (IQR); for tissue uptake at 2 h: 120 min after injection; for tissue uptake at 1 min: 1 min after injection; for tissue uptake at 0.5 h: 30 min after injection; for tissue uptake at 5 min: 5 min after injection; for tissue uptake at 1 h: 60 min after injection; for tissue uptake at 0.25 h: 15 min after injection
Method: Wild-type and atherosclerotic animals were injected with approximately 1.85 MBq of [^64Cu]Cu-DOTATATE and euthanized at either 1, 5, 15, 30, 60 or 120 min after injection (Supplementary Fig. S1A) to evaluate the tracer’s biodistribution. After euthanasia, an insulin syringe was used to collect blood samples from the right ventricle. Blood samples were used for the establishment of pharmacokinetics profile. Mice were then perfused with 20 mL of phosphate-buffered saline (PBS) and tissues of interest (heart, aorta, bone marrow, spleen, liver, stomach, bladder, kidneys, intestines, lungs, adrenal gland, muscles and pancreas) were harvested. Tissues were blotted for gamma counting on a Wizard2 2480 automatic gamma counter (Perkin Elmer, Waltham, MA). Values were corrected for decay and normalized to tissue weight to express radioactivity concentration as percentage injected dose per gram (%ID/g). […] To investigate the tracer’s distribution within different blood compartments, after gamma counting, 100 μL of blood were spun down at 2000 g for 15 min at 4 °C. Plasma (supernatant) and cells (pellet) were gamma counted and expressed as percentage of total activity. The remainder of the blood was separated using Lymphoprep density gradient medium (Nycomed Pharma, Zurich, Switzerland) following manufacturer’s instructions. Percentage of activity in mononuclear and polynuclear cells was calculated.

[1] = liver, female C57BL/6 mice, N=3-7, read-out: Tissue radioactivity, liver
[2] = lungs, female Apoe^-/- mice 12 weeks on Western Diet, N=3-8, read-out: Tissue radioactivity, lungs
[3] = lungs, female C57BL/6 mice, N=3-7, read-out: Tissue radioactivity, lungs
[4] = lymph node, female Apoe^-/- mice 12 weeks on Western Diet, N=3-8, read-out: Tissue radioactivity, lymph node
[5] = lymph node, female C57BL/6 mice, N=3-7, read-out: Tissue radioactivity, lymph node
[6] = muscle, female Apoe^-/- mice 12 weeks on Western Diet, N=3-8, read-out: Tissue radioactivity, muscle
[7] = muscle, female C57BL/6 mice, N=3-7, read-out: Tissue radioactivity, muscle
[8] = pancreas, female Apoe^-/- mice 12 weeks on Western Diet, N=3-8, read-out: Tissue radioactivity, pancreas
[9] = pancreas, female C57BL/6 mice, N=3-7, read-out: Tissue radioactivity, pancreas
[10] = small intestine, female Apoe^-/- mice 12 weeks on Western Diet, N=3-8, read-out: Tissue radioactivity, small intestine
[11] = small intestine, female C57BL/6 mice, N=3-7, read-out: Tissue radioactivity, small intestine
[12] = spleen, female Apoe^-/- mice 12 weeks on Western Diet, N=3-8, read-out: Tissue radioactivity, spleen
[13] = spleen, female C57BL/6 mice, N=3-7, read-out: Tissue radioactivity, spleen
[14] = stomach, female Apoe^-/- mice 12 weeks on Western Diet, N=3-8, read-out: Tissue radioactivity, stomach
[15] = stomach, female C57BL/6 mice, N=3-7, read-out: Tissue radioactivity, stomach
[16] = tail, female Apoe^-/- mice 12 weeks on Western Diet, N=3-8, read-out: Tissue radioactivity, tail
[17] = tail, female C57BL/6 mice, N=3-7, read-out: Tissue radioactivity, tail
[18] = thoracic aorta, female Apoe^-/- mice 12 weeks on Western Diet, N=3-8, read-out: Tissue radioactivity, thoracic aorta
[19] = thoracic aorta, female C57BL/6 mice, N=3-7, read-out: Tissue radioactivity, thoracic aorta

Which tissue uptake at 2 h (liver, female Apoe^-/- mice 12 weeks on Western Diet, N=3-8, read-out: Tissue radioactivity, liver) does the source give for `C[C@@H](O)[C@H](NC(=O)[C@@H]1CSSC[C@H](NC(=O)[C@@H](Cc2ccccc2)NC(=O)CN2CCN(CC(=O)O)CCN(CC(=O)O)CCN(CC(=O)O)CC2)C(=O)N[C@@H](Cc2ccc(O)cc2)C(=O)N[C@H](Cc2c[nH]c3ccccc23)C(=O)N[C@@H](CCCCN)C(=O)N[C@@H]([C@@H](C)O)C(=O)N1)C(=O)O` [[^64Cu]Cu-DOTATATE, metal not drawn] here?
Its tissue uptake at 2 h is 6.3 %ID/g.

And the tissue uptake at 1 min [1]?
The tissue uptake at 1 min was 10 %ID/g.

What about the tissue uptake at 0.5 h [1] of the same compound?
Its tissue uptake at 0.5 h is 6.4 %ID/g.

What about the tissue uptake at 1 min [2] of the same compound?
The tissue uptake at 1 min was 2.1 %ID/g.

And the tissue uptake at 5 min [2]?
Its tissue uptake at 5 min is 2.6 %ID/g.

And the tissue uptake at 0.5 h [2]?
Its tissue uptake at 0.5 h is 1.6 %ID/g.

What about the tissue uptake at 1 h [2] of the same compound?
Its tissue uptake at 1 h is 2.5 %ID/g.

And the tissue uptake at 2 h [2]?
Its tissue uptake at 2 h is 2.8 %ID/g.

And the tissue uptake at 5 min [3]?
The tissue uptake at 5 min was 3.2 %ID/g.

And the tissue uptake at 0.5 h [3]?
Its tissue uptake at 0.5 h is 1.3 %ID/g.

And the tissue uptake at 1 h [3]?
The tissue uptake at 1 h was 1.1 %ID/g.

What about the tissue uptake at 1 min [4] of the same compound?
The tissue uptake at 1 min was 2.6 %ID/g.

What about the tissue uptake at 5 min [4] of the same compound?
Its tissue uptake at 5 min is 3.2 %ID/g.

What about the tissue uptake at 0.25 h [4] of the same compound?
Its tissue uptake at 0.25 h is 3 %ID/g.

What about the tissue uptake at 0.5 h [4] of the same compound?
The tissue uptake at 0.5 h was 2.4 %ID/g.

And the tissue uptake at 1 h [4]?
Its tissue uptake at 1 h is 2.1 %ID/g.

What about the tissue uptake at 1 min [5] of the same compound?
Its tissue uptake at 1 min is 3 %ID/g.

And the tissue uptake at 5 min [5]?
Its tissue uptake at 5 min is 4.7 %ID/g.

What about the tissue uptake at 0.25 h [5] of the same compound?
Its tissue uptake at 0.25 h is 3.2 %ID/g.

What about the tissue uptake at 1 h [5] of the same compound?
Its tissue uptake at 1 h is 1.3 %ID/g.

And the tissue uptake at 2 h [5]?
Its tissue uptake at 2 h is 0.6 %ID/g.

What about the tissue uptake at 1 min [6] of the same compound?
The tissue uptake at 1 min was 1.2 %ID/g.

What about the tissue uptake at 5 min [6] of the same compound?
Its tissue uptake at 5 min is 1.4 %ID/g.

What about the tissue uptake at 0.25 h [6] of the same compound?
Its tissue uptake at 0.25 h is 0.6 %ID/g.

What about the tissue uptake at 0.5 h [6] of the same compound?
The tissue uptake at 0.5 h was 0.7 %ID/g.

What about the tissue uptake at 1 h [6] of the same compound?
Its tissue uptake at 1 h is 0.4 %ID/g.

And the tissue uptake at 2 h [6]?
Its tissue uptake at 2 h is 0.3 %ID/g.

And the tissue uptake at 1 min [7]?
The tissue uptake at 1 min was 2 %ID/g.

And the tissue uptake at 5 min [7]?
The tissue uptake at 5 min was 1.6 %ID/g.

And the tissue uptake at 0.5 h [7]?
Its tissue uptake at 0.5 h is 0.5 %ID/g.

And the tissue uptake at 1 h [7]?
Its tissue uptake at 1 h is 0.3 %ID/g.

And the tissue uptake at 2 h [7]?
Its tissue uptake at 2 h is 0.3 %ID/g.

And the tissue uptake at 1 min [8]?
The tissue uptake at 1 min was 4.7 %ID/g.

And the tissue uptake at 5 min [8]?
Its tissue uptake at 5 min is 4.1 %ID/g.

What about the tissue uptake at 0.25 h [8] of the same compound?
The tissue uptake at 0.25 h was 3.5 %ID/g.

And the tissue uptake at 0.5 h [8]?
Its tissue uptake at 0.5 h is 3.4 %ID/g.

What about the tissue uptake at 1 h [8] of the same compound?
Its tissue uptake at 1 h is 2.7 %ID/g.

And the tissue uptake at 2 h [8]?
The tissue uptake at 2 h was 2.6 %ID/g.

What about the tissue uptake at 1 min [9] of the same compound?
The tissue uptake at 1 min was 8.7 %ID/g.

What about the tissue uptake at 5 min [9] of the same compound?
The tissue uptake at 5 min was 5.3 %ID/g.

What about the tissue uptake at 0.25 h [9] of the same compound?
The tissue uptake at 0.25 h was 6.1 %ID/g.

What about the tissue uptake at 0.5 h [9] of the same compound?
The tissue uptake at 0.5 h was 5.8 %ID/g.

What about the tissue uptake at 1 h [9] of the same compound?
Its tissue uptake at 1 h is 4.8 %ID/g.

What about the tissue uptake at 2 h [9] of the same compound?
Its tissue uptake at 2 h is 2.6 %ID/g.

What about the tissue uptake at 1 min [10] of the same compound?
The tissue uptake at 1 min was 1.4 %ID/g.

And the tissue uptake at 5 min [10]?
Its tissue uptake at 5 min is 1.2 %ID/g.

And the tissue uptake at 0.5 h [10]?
Its tissue uptake at 0.5 h is 3.1 %ID/g.

And the tissue uptake at 2 h [10]?
Its tissue uptake at 2 h is 7.2 %ID/g.

And the tissue uptake at 1 min [11]?
Its tissue uptake at 1 min is 3 %ID/g.

What about the tissue uptake at 5 min [11] of the same compound?
The tissue uptake at 5 min was 2 %ID/g.

And the tissue uptake at 0.25 h [11]?
Its tissue uptake at 0.25 h is 1.7 %ID/g.

And the tissue uptake at 0.5 h [11]?
Its tissue uptake at 0.5 h is 2.6 %ID/g.

And the tissue uptake at 1 h [11]?
Its tissue uptake at 1 h is 2.4 %ID/g.

And the tissue uptake at 1 min [12]?
Its tissue uptake at 1 min is 2 %ID/g.

And the tissue uptake at 5 min [12]?
Its tissue uptake at 5 min is 1.1 %ID/g.

And the tissue uptake at 0.25 h [12]?
The tissue uptake at 0.25 h was 1.2 %ID/g.

What about the tissue uptake at 0.5 h [12] of the same compound?
Its tissue uptake at 0.5 h is 1.1 %ID/g.

What about the tissue uptake at 1 h [12] of the same compound?
The tissue uptake at 1 h was 0.8 %ID/g.

What about the tissue uptake at 2 h [12] of the same compound?
The tissue uptake at 2 h was 1.2 %ID/g.

And the tissue uptake at 5 min [13]?
The tissue uptake at 5 min was 1.5 %ID/g.

And the tissue uptake at 0.5 h [13]?
The tissue uptake at 0.5 h was 0.7 %ID/g.

And the tissue uptake at 1 h [13]?
The tissue uptake at 1 h was 0.6 %ID/g.

And the tissue uptake at 2 h [13]?
The tissue uptake at 2 h was 0.5 %ID/g.

And the tissue uptake at 1 min [14]?
The tissue uptake at 1 min was 2.1 %ID/g.

And the tissue uptake at 5 min [14]?
Its tissue uptake at 5 min is 2.4 %ID/g.

And the tissue uptake at 2 h [14]?
Its tissue uptake at 2 h is 5 %ID/g.

What about the tissue uptake at 1 min [15] of the same compound?
Its tissue uptake at 1 min is 2.3 %ID/g.

And the tissue uptake at 5 min [15]?
Its tissue uptake at 5 min is 2.4 %ID/g.

And the tissue uptake at 0.25 h [15]?
Its tissue uptake at 0.25 h is 5 %ID/g.

What about the tissue uptake at 0.5 h [15] of the same compound?
The tissue uptake at 0.5 h was 7.8 %ID/g.

And the tissue uptake at 1 h [15]?
Its tissue uptake at 1 h is 8 %ID/g.

And the tissue uptake at 2 h [15]?
Its tissue uptake at 2 h is 3.2 %ID/g.

What about the tissue uptake at 5 min [16] of the same compound?
Its tissue uptake at 5 min is 2.5 %ID/g.

And the tissue uptake at 0.25 h [16]?
The tissue uptake at 0.25 h was 2.5 %ID/g.

What about the tissue uptake at 0.5 h [16] of the same compound?
Its tissue uptake at 0.5 h is 3.1 %ID/g.

What about the tissue uptake at 1 h [16] of the same compound?
The tissue uptake at 1 h was 2 %ID/g.

What about the tissue uptake at 2 h [16] of the same compound?
Its tissue uptake at 2 h is 2.7 %ID/g.

And the tissue uptake at 1 min [17]?
Its tissue uptake at 1 min is 3.5 %ID/g.

And the tissue uptake at 5 min [17]?
Its tissue uptake at 5 min is 2.7 %ID/g.

And the tissue uptake at 1 h [17]?
Its tissue uptake at 1 h is 1.6 %ID/g.

And the tissue uptake at 2 h [17]?
Its tissue uptake at 2 h is 0.6 %ID/g.

And the tissue uptake at 1 min [18]?
Its tissue uptake at 1 min is 2.9 %ID/g.

And the tissue uptake at 5 min [18]?
Its tissue uptake at 5 min is 2.1 %ID/g.

What about the tissue uptake at 0.25 h [18] of the same compound?
The tissue uptake at 0.25 h was 2 %ID/g.

And the tissue uptake at 1 h [18]?
Its tissue uptake at 1 h is 2.1 %ID/g.

What about the tissue uptake at 2 h [18] of the same compound?
Its tissue uptake at 2 h is 2.1 %ID/g.

And the tissue uptake at 1 min [19]?
Its tissue uptake at 1 min is 3.2 %ID/g.

And the tissue uptake at 5 min [19]?
The tissue uptake at 5 min was 3.1 %ID/g.

And the tissue uptake at 0.25 h [19]?
Its tissue uptake at 0.25 h is 1.6 %ID/g.

What about the tissue uptake at 0.5 h [19] of the same compound?
The tissue uptake at 0.5 h was 1.3 %ID/g.

And the tissue uptake at 1 h [19]?
Its tissue uptake at 1 h is 1.2 %ID/g.

What about the tissue uptake at 2 h [19] of the same compound?
Its tissue uptake at 2 h is 1 %ID/g.
